± gives the expanded uncertainty stated by the source.
Key:
[1] = refractive index (Na D-line) (dimensionless); conditions: 100 kPa, Liquid, Standard Abbe refractometry
[2] = 100 kPa, Liquid; for electrical conductivity: Frequency=0.0006 MHz, Alternating current cell with electrodes; for viscosity: Concentric cylinders viscometry; for mass density: Vibrating tube method

CC[N+](C)(C)CCCO.O=S(=O)([N-]S(=O)(=O)C(F)(F)F)C(F)(F)F
Conditions	electrical conductivity [S/m]	mass density [kg/m3]	refractive index	viscosity [mPa·s]
[1], 283.15 K	–	–	1.4253 ± 0.0017	–
[1], 288.15 K	–	–	1.4241 ± 0.0017	–
[1], 293.15 K	–	–	1.4228 ± 0.0017	–
[1], 298.15 K	–	–	1.4215 ± 0.0017	–
[1], 303.15 K	–	–	1.4203 ± 0.0017	–
[1], 308.15 K	–	–	1.419 ± 0.0017	–
[1], 313.15 K	–	–	1.4176 ± 0.0017	–
[1], 318.15 K	–	–	1.4164 ± 0.0017	–
[1], 323.15 K	–	–	1.4151 ± 0.0017	–
[1], 328.15 K	–	–	1.4139 ± 0.0017	–
[1], 333.15 K	–	–	1.4126 ± 0.0017	–
[1], 338.15 K	–	–	1.4114 ± 0.0017	–
[1], 343.15 K	–	–	1.4101 ± 0.0017	–
[1], 348.15 K	–	–	1.4089 ± 0.0017	–
[1], 353.15 K	–	–	1.4076 ± 0.0017	–
[1], 358.15 K	–	–	1.4064 ± 0.0017	–
[2], 283.15 K	0.049 ± 0.001	–	–	–
[2], 288.15 K	0.069 ± 0.001	1472.2 ± 1.2	–	314 ± 14
[2], 289.15 K	–	1471.4 ± 1.2	–	–
[2], 290.15 K	–	1470.5 ± 1.2	–	–
[2], 291.15 K	–	1469.6 ± 1.2	–	–
[2], 292.15 K	–	1468.7 ± 1.2	–	–
[2], 293.15 K	0.095 ± 0.002	1467.8 ± 1.2	–	220.1 ± 9.8
[2], 294.15 K	–	1466.9 ± 1.2	–	–
[2], 295.15 K	–	1466.1 ± 1.2	–	–
[2], 296.15 K	–	1465.2 ± 1.2	–	–
[2], 297.15 K	–	1464.3 ± 1.2	–	–
[2], 298.15 K	0.125 ± 0.003	1463.4 ± 1.2	–	166 ± 7.1
[2], 299.16 K	–	1462.5 ± 1.2	–	–
[2], 300.16 K	–	1461.7 ± 1.2	–	–
[2], 301.15 K	–	1460.8 ± 1.2	–	–
[2], 302.15 K	–	1459.9 ± 1.2	–	–
[2], 303.15 K	0.162 ± 0.003	1459 ± 1.2	–	125.4 ± 5.3
[2], 304.15 K	–	1458.2 ± 1.2	–	–
[2], 305.15 K	–	1457.3 ± 1.2	–	–
[2], 306.15 K	–	1456.4 ± 1.2	–	–
[2], 307.15 K	–	1455.5 ± 1.2	–	–
[2], 308.15 K	0.204 ± 0.004	1454.7 ± 1.2	–	96.7 ± 4
[2], 309.15 K	–	1453.8 ± 1.2	–	–
[2], 310.15 K	–	1452.9 ± 1.2	–	–
[2], 311.15 K	–	1452 ± 1.2	–	–
[2], 312.15 K	–	1451.2 ± 1.2	–	–
[2], 313.15 K	0.253 ± 0.005	1450.3 ± 1.2	–	76.8 ± 3.1
[2], 314.15 K	–	1449.4 ± 1.2	–	–
[2], 315.15 K	–	1448.6 ± 1.2	–	–
[2], 316.15 K	–	1447.7 ± 1.2	–	–
[2], 317.15 K	–	1446.8 ± 1.2	–	–
[2], 318.15 K	0.309 ± 0.006	1446 ± 1.2	–	60.9 ± 2.5
[2], 319.15 K	–	1445.1 ± 1.1	–	–
[2], 320.15 K	–	1444.2 ± 1.1	–	–
[2], 321.15 K	–	1443.4 ± 1.1	–	–
[2], 322.15 K	–	1442.5 ± 1.1	–	–
[2], 323.15 K	0.371 ± 0.007	1441.6 ± 1.1	–	49.5 ± 2
[2], 324.15 K	–	1440.8 ± 1.1	–	–
[2], 325.15 K	–	1439.9 ± 1.1	–	–
[2], 326.15 K	–	1439 ± 1.1	–	–
[2], 327.15 K	–	1438.2 ± 1.1	–	–
[2], 328.15 K	–	1437.3 ± 1.1	–	40.8 ± 1.7
[2], 329.15 K	–	1436.4 ± 1.1	–	–
[2], 330.15 K	–	1435.6 ± 1.1	–	–
[2], 331.15 K	–	1434.7 ± 1.1	–	–
[2], 332.15 K	–	1433.9 ± 1.1	–	–
[2], 333.15 K	–	1433 ± 1.1	–	34.5 ± 1.4
[2], 334.15 K	–	1432.1 ± 1.1	–	–
[2], 335.16 K	–	1431.3 ± 1.1	–	–
[2], 336.15 K	–	1430.4 ± 1.1	–	–
[2], 337.15 K	–	1429.6 ± 1.1	–	–
[2], 338.15 K	–	1428.7 ± 1.1	–	28.8 ± 1.2
[2], 339.15 K	–	1427.8 ± 1.1	–	–
[2], 340.15 K	–	1427 ± 1.1	–	–
[2], 341.15 K	–	1426.1 ± 1.1	–	–
[2], 342.15 K	–	1425.3 ± 1.1	–	–
[2], 343.15 K	–	1424.4 ± 1.1	–	24.6 ± 1
[2], 344.15 K	–	1423.6 ± 1.1	–	–
[2], 345.15 K	–	1422.7 ± 1.1	–	–
[2], 346.15 K	–	1421.9 ± 1.1	–	–
[2], 347.15 K	–	1421 ± 1.1	–	–
[2], 348.15 K	–	1420.1 ± 1.1	–	21.2 ± 0.9
[2], 349.15 K	–	1419.3 ± 1.1	–	–
[2], 350.15 K	–	1418.4 ± 1.1	–	–
[2], 351.15 K	–	1417.6 ± 1.1	–	–
[2], 352.15 K	–	1416.7 ± 1.1	–	–
[2], 353.15 K	–	1415.9 ± 1.1	–	18.7 ± 0.8
[2], 354.15 K	–	1415 ± 1.1	–	–
[2], 355.15 K	–	1414.2 ± 1.1	–	–
[2], 356.15 K	–	1413.3 ± 1.1	–	–
[2], 357.15 K	–	1412.5 ± 1.1	–	–
[2], 358.15 K	–	1411.7 ± 1.1	–	16.2 ± 0.7
[2], 359.15 K	–	1410.8 ± 1.1	–	–
[2], 360.15 K	–	1410 ± 1.1	–	–
[2], 361.15 K	–	1409.1 ± 1.1	–	–
[2], 362.16 K	–	1408.3 ± 1.1	–	–
[2], 363.15 K	–	1407.4 ± 1.1	–	14.3 ± 0.6
